Measurements from article PMC3762901, “Cyclic Peptide Inhibitors of the β-Sliding Clamp in Staphylococcus aureus” (PLoS ONE, 2013).

B1: cyclic DnaA1−86: spliced cyclic fragment of amino acids 1−86 (Domain I) of E. coli DnaA produced by SICLOPPS (protein, UniProt P03004 1-86, looked up, fragment)
chain: MSLSLWQQCLARLQDELPATEFSMWIRPLQAELSDNTLALYAPNRFVLDWVRDKYLNNINGLLTSFCGADAPQLRFEVGTKPVTQT
modifications: cyclized by SICLOPPS
notes: spliced cyclic fragment of amino acids 1−86 (Domain I) of E. coli DnaA produced by SICLOPPS

What was measured:
[1] = tested on: recA-lacZ transcriptional fusion (SOS response); experiment: SOS induction, recA-lacZ β-galactosidase; type: cell-based, Staphylococcus aureus; settings: 2 μg/ml; after 210 minutes; LB, 37°C
Method: To test whether the cessation of DNA accumulation was accompanied by induction of the SOS response we measured the effects of both peptides on induction of the recA gene. Strain MTC157 contains a recA-lacZ transcriptional fusion in its chromosome. […] The level of induction was less that that observed for the DNA damaging agent mitomycin C (about 3-fold increase after 210 minutes). It is likely that both peptides results in malfunctioning of the replisome, and this provides the signal for SOS induction in these cells.
Figure 6 Peptide III-5 and III-6 induces the SOS response in S. aureus. S. aureus strain MTH157 (recA::lacZ) was grown exponentially in LB medium at 37°C. At an optical density OD600 = 0.1, Mitomycin C or Peptides III-5/III-6 were added to final concentrations of 2 μg/ml or 50 μg/ml, respectively. At the times indicated, samples were taken and the level of β-galactosidase determined (Materials and Methods).

E. coli = experiment: Intracellular expression of cyclic DnaA1-86 in E. coli (growth, morphology); type: cell-based, Escherichia coli; settings: IntC::DnaA1-86::IntN induced with 2 mM IPTG, 30°C; effect attributed mainly to the cyclic fragment
Method: We used the SICLOPPS technology for intracellular synthesis of cyclic peptide libraries. Cyclic peptides were chosen over their linear counterparts to limit degradation by cellular proteases. We initially tested the SICLOPPS system by inserting the coding region for amino acids 1−86 (Domain I) of DnaA from E.coli between the C- and N-terminal parts of the split intein.
Figure 2 Intracellular production of cyclic DnaA1-86. Expression of IntC::DnaA1−86::IntN was induced by addition of 2 mM IPTG to cells growing exponentially at 30°C or by plating exponential growing cells on plates containing 2 mM IPTG followed by incubation at 30C. A. Intein-DnaA precursor and splice products were visualized by Western blot using polyclonal anti-DnaA antibodies. B. Growth on LB plates containing 2 mM IPTG (top) and phase-contrast images (bottom) of expressing IntC::IntN (left) or after three hours expression of IntC::DnaA1−86::IntN (right).
Because all cells contained a mix of precursor and splice product it was not clear which species were responsible for filamentation. We therefore mutated the splice site at the IntC-DnaA1−86 (IntC-HNS-DnaA1−86 to IntC-QYS-DnaA1−86) junction to prevent splicing.

Molecule	Increase in β-galactosidase activity (recA-lacZ) [1]	Effect of intracellular expression on E. coli growth and morphology (E. coli)
CO[C@@]12[C@H](COC(N)=O)C3=C(C(=O)C(C)=C(N)C3=O)N1C[C@@H]1N[C@@H]12 [mitomycin C]	about 3 fold	
B1		inhibition of growth and cell filamentation
